From patent US20240299394A1, “TARGETED TREATMENT FOR SKIN FRAGILITY DISEASES” (University of Washington, priority 2023, published 2024)
“Also recorded” adds a separate entry of the source.

Key:
[1] = tested on: HET or KO keratinocyte sheets; assay: Monolayer mechanical dissociation assay, SERCA2-deficient keratinocytes; format: cell-based, human; conditions: HET or KO monolayers; trametinib 1 μM 48 hours; PD98059 20 μM 24 hours
Procedure: (§1) Dispase-based mechanical dissociation assays were carried out as described (Simpson C L, et al. Am J Pathol. 2010; 177(6): p. 2921-37). Keratinocytes were plated at a density of 1×10^6 cells per well of 6-well cell culture dishes. Upon reaching confluence, the calcium concentration of the medium was adjusted to 1.3 mM. Vehicle control (DMSO) or chemical inhibitors were added at the following concentrations: […] After 24 to 72 hours, monolayers were washed with PBS and then incubated with 500 μL dispase (5 U/ml) in Hank's balanced salt solution (Stemcell Technologies of Vancouver, CA, Cat. #07913) for 30 minutes at 37° C. Next, 4.5 ml PBS was added to the wells and all liquid plus released monolayers were transferred into 15 mL conical tubes, which were placed together in a rack and inverted 5-10 times to induce mechanical stress. Monolayer fragments were transferred back into 6-well cell culture plates and imaged with a 12-megapixel digital camera. Fragments were counted in Fiji.

[2] = tested on: organotypic epidermis grown from NHEKs; assay: Histology (H&E) of organotypic epidermis treated with TG; format: cell-based, human
[3] = tested on: NHEK monolayers; assay: Monolayer mechanical dissociation assay, B-RAF inhibitor model of Grover disease; format: cell-based, human; conditions: co-treatment with Dab or Vem; trametinib 1 μM, U0126 10 μM, PD98059 20 μM; 24 h
Procedure: Dispase-based mechanical dissociation assays were carried out as described (70). Keratinocytes were plated at a density of 1×10^6 cells per well of 6-well cell culture dishes. Upon reaching confluence, the cells were switched into E-medium. Vehicle control (DMSO) or chemical inhibitors were added at the following concentrations: Dabrafenib (1 μM), vemurafenib (10 μM) trametinib (1 μM), U0126 (10 μM), or PD98059 (20 μM). After 24 h, monolayers were washed with PBS and then incubated with 500 μL dispase (5 U/ml) in Hank's balanced salt solution (Stemcell Technologies of Vancouver, Canada, Cat. #07913) for 30 minutes at 37° C. Next, 4.5 mL PBS was added to the wells and all liquid plus released monolayers were transferred into 15 mL conical tubes, which were placed together in a rack and inverted 1-10 times to induce mechanical stress. Monolayer fragments were transferred back into 6-well cell culture plates and imaged with a 12-megapixel digital camera. Fragments were counted in Fiji.

[4] = tested on: NHEK monolayers; assay: Monolayer mechanical dissociation assay, SERCA2 inhibition with thapsigargin; format: cell-based, human; conditions: 24 hours; for integrity of epithelial sheets despite SERCA2 inhibition: with 1 μM TG, 1 μM Tram, 10 μM U0126, 20 μM PD98059, 1 μM dabrafenib
Procedure: as §1

[5] = tested on: HET cells (SERCA2-depleted keratinocytes, THEKs); assay: RT-qPCR of keratinocyte mRNA transcripts; format: cell-based, human; conditions: HET cells in E-medium 24 hours; trametinib 1 μM, U0126 10 μM, PD184352 10 μM
Procedure: THEKs were seeded at a density of 1×10^6 cells per well of 6-well cell culture dishes in complete KSFM. Upon reaching confluence, KSFM was replaced with E-medium containing vehicle control (DMSO) or inhibitors at the following concentrations: Trametinib (1 μM), U0126 (10 μM), or PD184352 (10 μM). At the indicated time points, cell culture medium was removed and cells were washed once with PBS. RNA was extracted using the NucleoSpin RNA Plus Kit (Machery-Nagel of Duren, Germany) followed by reverse-transcription with the iScript cDNA synthesis kit (Bio-Rad of Hercules, CA) according to the manufacturer's instructions. Copy DNAs, also referred to as complementary DNAs (cDNAs) were diluted 5-fold and 2 μL of the resulting cDNAs were used for each 10 μL quantitative polymerase chain reaction (qPCR) assay. Real-time qPCR assays were carried out using the TaqMan Gene expression master mix (Applied Biosystems of Waltham, MA) according to the manufacturer's protocol. Pre-designed TaqMan probes from Thermo-Fisher were used for quantification of human Actb (Hs01060665_g1), Krt1 (Hs00196158_m1), Krt10 (Hs00166289_m1), Krt14 (Hs00265033_m1), Dsg1 (Hs00355084_m1), Alox12b (Hs00153961_m1), Alox15b (Hs00153988_m1), Ifi27 (Hs01086373_g1), Trpv3 (Hs00376854_m1), Trpv4 (Hs01099348_m1), or Notch1 (Hs01062014_m1). The housekeeping gene Actb was used as an endogenous control and mRNA fold changes were determined using the 2^(−ΔΔCt) method.

[6] = tested on: NHEKs; assay: KRT10 immunostaining of TG-treated keratinocytes; format: cell-based, human; conditions: 1 μM TG alone, 48 hours
Procedure: Keratinocytes were grown to confluence in 35 mm, glass-bottom cell culture dishes (MatTek of Ashland, MA, #P35G-1.5-20-C). For staining keratins and desmosomal proteins, cells were fixed in ice-cold 100% methanol at −20° C. for 2 minutes, allowed to dry, then re-hydrated in PBS. For staining other proteins, cells were fixed in 4% paraformaldehyde for 10 minutes at 37° C. Fixed cells were then incubated with blocking buffer [0.5% (w/v) bovine serum albumin (BSA, Sigma), 10% (w/v) normal goat serum (NGS, Sigma) in PBS] for 30 minutes at 37° C. Cells were then washed with PBS. Primary antibodies were diluted in 0.5% (w/v) BSA in PBS and incubated on the cells overnight at 4° C. Primary antibody dilutions were as follows: rabbit anti-SERCA2 (1:200), rabbit anti-cytokeratin 10 (1:2,000), mouse anti-Desmoglein 1 (1:100), mouse anti-Desmoglein 2 (1:100), mouse anti-Desmoglein 3 (1:100), mouse anti-Plakoglobin (1:100), rabbit anti-PERK1/2 (1:400), and mouse anti-ERK1/2 (1:400). Cells were washed three times with PBS, then incubated with species-specific secondary antibodies diluted at 1:300 (with or without Hoechst at 1:500) in 0.5% (w/v) BSA in PBS for 30 min at 37° C. […]
Fluorescence microscopy images were analyzed using Fiji software. Quantification of fluorescence intensity was performed in a blinded manner using non-visibly identifiable microscopy images. […]

[7] = tested on: organotypic cultures of NHEKs; assay: Immunostaining of KRT10 and pERK in organotypic epidermis treated with TG; format: cell-based, human; conditions: 1 μM TG, 48 hours
Procedure: Paraffin-embedded formalin-fixed tissue cross-sections on glass slides were incubated at 65° C. for 2 h. Sections were prepared for staining by immersion in 3 baths of xylenes (Thermo-Fisher) for 5 min each, followed by 3 baths of 95% ethanol for 5 min each, then 70% ethanol for 5 minutes, and finally 3 baths of PBS for 5 min each. Slides were then submerged in antigen retrieval solution [0.1 M sodium citrate (pH 6.0) with 0.05% (v/v) Tween-20] and heated to 95° C. for 15 min. Slides were allowed to cool to room temperature and then washed with PBS. Tissue sections were encircled with a hydrophobic barrier using a PAP pen. Tissue sections were incubated in blocking buffer [0.5% (w/v) BSA, 10% (v/v) NGS in PBS] for 30 minutes at 37° C. in a humidified chamber. […]
Fluorescence images of immunostained tissue sections were captured by SDC microscopy as above and analyzed using Fiji. Quantification of fluorescence intensity was performed in using non-visibly labeled images from immunostained tissue cross-sections. The Fiji “Measure” function was used to calculate the mean intensity of the fluorescence signal and the mean background fluorescence intensity, which was subtracted from each value. The net fluorescence intensity was averaged across multiple non-overlapping HPF and the values from control cultures were normalized to an average value of 1.

[8] = B-RAF inhibitor monotherapy for cancer (Carlos G, et al. 2015); cited from earlier work

Compound | integrity of keratinocyte sheets despite B-RAF inhibition [3] | integrity of epithelial sheets despite SERCA2 inhibition [4] | DSG1 mRNA expression [5] | KRT1 mRNA expression [5] | KRT10 mRNA expression [5] | KRT14 mRNA levels [5] | also measured
COc1cccc(-c2cc(=O)c3ccccc3o2)c1N [PD98059] | comparably rescued cell cohesion | restored | – | – | – | – | resistance of keratinocyte sheets to mechanical stress (number of fragments) [1]: similarly rescued cohesion; effect on TG-induced loss of keratinocyte cohesion ([2]; 1 μM TG plus 20 μM PD98059 or 1 μM trametinib): mitigated; also recorded: improved keratinocyte cohesion; effect on TG-induced retention of nuclei in cornified layers / cornification ([2]; 1 μM TG plus 20 μM PD98059 or 1 μM trametinib, 48 hours): reduced TG-induced retention of nuclei in the cornified layers; also recorded: normalization of cornification
O=C(NOCC1CC1)c1ccc(F)c(F)c1Nc1ccc(I)cc1Cl [PD184352] | – | – | sufficient to augment expression | sufficient to augment expression | sufficient to augment expression | did not significantly alter | –
C/C=C(/C)C(=O)O[C@H]1C(C)=C2[C@H]([C@@H]1OC(=O)CCCCCCC)[C@@](C)(OC(C)=O)C[C@H](OC(=O)CCC)[C@@]1(O)[C@H]2OC(=O)[C@@]1(C)O [TG, thapsigargin] | – | – | – | – | – | – | keratinocyte cohesion in organotypic epidermis ([2]; 1 μM TG alone, 48 hours): disrupted keratinocyte cohesion most notably between basal and suprabasal cell layers; also recorded: loss of keratinocyte cohesion; also recorded: separation between basal and suprabasal layers; retention of nuclei in cornified layers ([2]; 1 μM TG alone, 48 hours): retention of nuclei in the cornified layers; KRT10 up-regulation by immunostaining [6]: suppressed their ability to up-regulate KRT10; KRT10 immunostaining in organotypic epidermis [7]: reduction in KRT10; pERK (ERK activation) in organotypic epidermis [7]: ERK hyper-activation; epithelial sheet fragmentation ([4]; 1 μM TG alone): significant increase in epithelial sheet fragmentation; also recorded: readily fragmented
N#CC(=C(/N)Sc1ccccc1N)/C(C#N)=C(\N)Sc1ccccc1N [U0126] | comparably rescued cell cohesion | restored | sufficient to augment expression | sufficient to augment expression | sufficient to augment expression | did not significantly alter | –
CCCS(=O)(=O)Nc1ccc(F)c(C(=O)c2c[nH]c3ncc(-c4ccc(Cl)cc4)cc23)c1F [vemurafenib] | – | – | – | – | – | – | patients in whom GD was seen [8]: 38.9%
